Results: ChEMBL document CHEMBL5113478, “7-Azaindole, 2,7-diazaindole, and 1H-pyrazole as core structures for novel anticancer agents with potential chemosensitizing properties” (Eur J Med Chem, 2022)

Assays:
Type in all cases: functional
[1] = system: PANC-1; assay: Antiproliferative activity against human PANC-1 cells assessed as […] cell proliferation at 10 uM incubated for 48 hrs in presence of 15 uM of CDDP by WST-1 assay relative to control
[2] = system: Jurkat; assay: Antiproliferative activity against human Jurkat cells assessed as […] cell proliferation at 10 uM incubated for 48 hrs by WST-1 assay relative to control
[3] = system: HeLa; assay: Antiproliferative activity against human HeLa cells assessed as […] cell proliferation at 10 uM incubated for 48 hrs in presence of 15 uM of CDDP by WST-1 assay relative to control
[4] = system: HeLa; assay: Antiproliferative activity against human HeLa cells assessed as […] cell proliferation at 10 uM incubated for 48 hrs by WST-1 assay relative to control
[5] = system: A2780; assay: Antiproliferative activity against human A2780 cells assessed as […] cell proliferation at 10 uM incubated for 48 hrs by WST-1 assay relative to control
[6] = system: Jurkat; assay: Antiproliferative activity against human Jurkat cells assessed as […] cell proliferation at 10 uM incubated for 48 hrs in presence of 2 uM of CDDP by WST-1 assay relative to control
[7] = system: A2780; assay: Antiproliferative activity against human A2780 cells assessed as […] cell proliferation at 10 uM incubated for 48 hrs in presence of 2 uM of CDDP by WST-1 assay relative to control
[8] = system: SAOS-2; assay: Antiproliferative activity against human SAOS-2 cells assessed as […] cell proliferation at 10 uM incubated for 48 hrs in presence of 15 uM of CDDP by WST-1 assay relative to control
[9] = system: A549; assay: Antiproliferative activity against human A549 cells assessed as […] cell proliferation at 10 uM incubated for 48 hrs in presence of 15 uM of CDDP by WST-1 assay relative to control
[10] = system: MOLT-4; assay: Antiproliferative activity against human MOLT-4 cells assessed as […] cell proliferation at 10 uM incubated for 48 hrs by WST-1 assay relative to control
[11] = system: A549; assay: Antiproliferative activity against human A549 cells assessed as […] cell proliferation at 10 uM incubated for 48 hrs by WST-1 assay relative to control
[12] = system: PANC-1; assay: Antiproliferative activity against human PANC-1 cells assessed as […] cell proliferation at 10 uM incubated for 48 hrs by WST-1 assay relative to control
[13] = system: MCF7; assay: Antiproliferative activity against human MCF7 cells assessed as […] cell proliferation at 10 uM incubated for 48 hrs by WST-1 assay relative to control
[14] = system: MCF7; assay: Antiproliferative activity against human MCF7 cells assessed as […] cell proliferation at 10 uM incubated for 48 hrs in presence of 10 uM of CDDP by WST-1 assay relative to control
[15] = system: SAOS-2; assay: Antiproliferative activity against human SAOS-2 cells assessed as […] cell proliferation at 10 uM incubated for 48 hrs by WST-1 assay relative to control
[16] = system: HT-29; assay: Antiproliferative activity against human HT-29 cells assessed as […] cell proliferation at 10 uM incubated for 48 hrs in presence of 15 uM of CDDP by WST-1 assay relative to control
[17] = system: HT-29; assay: Antiproliferative activity against human HT-29 cells assessed as […] cell proliferation at 10 uM incubated for 48 hrs by WST-1 assay relative to control
[18] = system: MOLT-4; assay: Antiproliferative activity against human MOLT-4 cells assessed as […] cell proliferation at 10 uM incubated for 48 hrs in presence of 2 uM of CDDP by WST-1 assay relative to control

| SMILES | Activity [1] [%] | Activity [2] [%] | Activity [3] [%] | Activity [4] [%] | Activity [5] [%] | Activity [6] [%] | Activity [7] [%] | Activity [8] [%] | Activity [9] [%] | Activity [10] [%] | Activity [11] [%] | Activity [12] [%] | Activity [13] [%] | Activity [14] [%] | Activity [15] [%] | Activity [16] [%] | Cell viability relative to control [17] [%] | Activity [18] [%] |
| --- | --- | --- | --- | --- | --- | --- | --- | --- | --- | --- | --- | --- | --- | --- | --- | --- | --- | --- |
| CS(=O)(=O)c1ccc(-c2cnc3[nH]nc(C(=O)N4CCC(c5ccccc5)CC4)c3c2)cc1 | 71 | 92 | 71 | 92 | 92 | 71 | 71 | 71 | 71 | 92 | 92 | 92 | 92 | 71 | 92 | 71 | 92 | 71 |
| CCN1CCN(C(=O)c2cc3cc(-c4ccc(S(C)(=O)=O)cc4)cnc3[nH]2)CC1 | 58 | 90 | 58 | 90 | 90 | 58 | 58 | 58 | 58 | 90 | 90 | 90 | 90 | 58 | 90 | 58 | 90 | 58 |
| CC(C)S(=O)(=O)c1ccc(-c2cc(C(=O)N3CCC(c4ccccc4)CC3)n[nH]2)cc1 | 62 | 84 | 62 | 84 | 84 | 62 | 62 | 62 | 62 | 84 | 84 | 84 | 84 | 62 | 84 | 62 | 84 | 62 |
| CC(C)S(=O)(=O)c1ccc(-c2cnc3[nH]c(C(=O)Nc4ccccc4)cc3c2)cc1 | 65 | 103 | 65 | 103 | 103 | 65 | 65 | 65 | 65 | 103 | 103 | 103 | 103 | 65 | 103 | 65 | 103 | 65 |
| CCN(CC)c1ccc(CNC(=O)c2cc3cc(-c4ccc(S(=O)(=O)C(C)C)cc4)cnc3[nH]2)cc1 | 57 | 95 | 57 | 95 | 95 | 57 | 57 | 57 | 57 | 95 | 95 | 95 | 95 | 57 | 95 | 57 | 95 | 57 |
| CCN1CCN(C2CCN(C(=O)c3cc4cc(-c5ccc(S(C)(=O)=O)cc5)cnc4[nH]3)CC2)CC1 | 67 | 96 | 67 | 96 | 96 | 67 | 67 | 67 | 67 | 96 | 96 | 96 | 96 | 67 | 96 | 67 | 96 | 67 |
| CS(=O)(=O)c1ccc(-c2cnc3[nH]c(C(=O)NCc4ccccc4)cc3c2)cc1 | 72 | 100 | 72 | 100 | 100 | 72 | 72 | 72 | 72 | 100 | 100 | 100 | 100 | 72 | 100 | 72 | 100 | 72 |
| CC(C)S(=O)(=O)c1ccc(-c2cnc3[nH]c(C(=O)N4CCC(c5ccccc5)CC4)cc3c2)cc1 | 64 | 92 | 64 | 92 | 92 | 64 | 64 | 64 | 64 | 92 | 92 | 92 | 92 | 64 | 92 | 64 | 92 | 64 |
| CC(C)S(=O)(=O)c1ccc(-c2cc(-c3nnc(-c4ccccc4)o3)n[nH]2)cc1 | 64 | 98 | 64 | 98 | 98 | 64 | 64 | 64 | 64 | 98 | 98 | 98 | 98 | 64 | 98 | 64 | 98 | 64 |
| CS(=O)(=O)c1ccc(-c2cnc3[nH]cc(C(=O)N4CCC(c5ccccc5)CC4)c3c2)cc1 | 44 | 49 | 44 | 49 | 49 | 44 | 44 | 44 | 44 | 49 | 49 | 49 | 49 | 44 | 49 | 44 | 49 | 44 |
| CS(=O)(=O)c1ccc(-c2cnc3[nH]cc(C(=O)NCc4ccccc4)c3c2)cc1 | 64 | 89 | 64 | 89 | 89 | 64 | 64 | 64 | 64 | 89 | 89 | 89 | 89 | 64 | 89 | 64 | 89 | 64 |
| CCN1CCN(C(=O)c2c[nH]c3ncc(-c4ccc(S(=O)(=O)C(C)C)cc4)cc23)CC1 | 66 | 100 | 66 | 100 | 100 | 66 | 66 | 66 | 66 | 100 | 100 | 100 | 100 | 66 | 100 | 66 | 100 | 66 |
| CCN1CCN(C(=O)c2cc(-c3ccc(S(C)(=O)=O)cc3)[nH]n2)CC1 | 65 | 102 | 65 | 102 | 102 | 65 | 65 | 65 | 65 | 102 | 102 | 102 | 102 | 65 | 102 | 65 | 102 | 65 |
